{"source": "patent US20240355418A1", "about": "“MULTIPLEX, TEMPORALLY RESOLVED MOLECULAR SIGNAL RECORDER AND RELATED METHODS” (University of Washington, priority 2021, published 2024)", "tested_on": "HEK293T and monoclonal lineage tracing cell line (iPE2(+) LT(+))", "experiment": "Cell doubling time with or without Doxycycline", "assay_type": "cell-based", "source_text": "(A). Cell doubling times measured for HEK293T and the monoclonal lineage tracing cell line (iPE2(+) LT(+)), with or without Doxycycline (Dox). […] P values were obtained using the two-tailed Student's t-test with Bonferroni correction: only *P<0.05 are shown. The center and error bars are mean and standard deviations, respectively, from n=3 independent experiments.", "data": [{"smiles": "C[C@H]1c2cccc(O)c2C(=O)C2=C(O)[C@]3(O)C(=O)C(C(N)=O)=C(O)[C@@H](N(C)C)[C@@H]3[C@@H](O)[C@@H]21", "note": "[Dox, Doxycycline hyclate]", "values": [{"measurement": "Effect on cell doubling time", "result": "lengthened the cell doubling time"}]}]}
